EP0793496B1, “USE OF HALOGENATED beta-[…] MODEL […] PRODUCE NEURODEGENERATIVE DISORDERS” (priority 1994, dated 1996)

Legend:
[1] = test system: dopaminerge Primärzellen aus dem Mesencephalon; test: Dopamine content / dopamine release in the cell cultures (HPLC with electrochemical detection); format: cell-based; details: for Dopamingehalt: 24 h, mean ± S.D.
From the text: (§1) In der Zellkultur zeigen 1-Trichlormethyl-β-carboline neurotoxische Eigenschaften, die mit denen von MPP^+ bzw. MPTP, den bisher bestuntersuchten dopaminergen Neurotoxinen, vergleichbar sind. Das neurotoxische Potential der chlorierten β-Carboline wurde daher mit Methoden untersucht, die sich beim Studium der Wirkung von MPTP und seiner Analoga bewährt haben (Koutsilieri et al., 1993; Michel et al., 1990; Sanchez-Ramos et al., 1988) Deutliche degenerative Veränderungen sind in vitro im Akutversuch bei einer Einwirkungszeit von 24 Stunden ab einer Konzentration von 10 - 100 µM feststellbar. Die Substanzen führen zum Zelltod dopaminerger Primärzellen aus dem Mesencephalon - Zellen, die den bei Morbus Parkinson betroffenen Neuronen des Menschen entsprechen. Dem Zelltod dieser immunhistochemisch eindeutig charakterisierten Neuronen (Antikörper auf Tyrosinhydroxylase) gehen morphologische Veränderungen der Zellen voraus. Dabei nimmt die Gesamt-Zelloberfläche ab, die Dendriten und Axone, (zuerst die sekundären und dann die primären Zellfortsätze) gehen verloren. Diese histologischen Befunde (vgl. auch Tabelle 2) wurden durch bildgebende Verfahren erhärtet und quantifiziert. Die 1-Trichlormethyl-β-carboline zeigen auch toxische Eigenschaften in Gliazellkulturen, wie durch histologische Befunde nachgewiesen werden konnte. Für die Gruppe der 1-Trichlormethyl-β-carboline läßt sich eine Beeinflussung der synaptischen Transmitterkonzentration erwarten, wie an Versuchen mit der Grundstruktur TaClo nachgewiesen werden konnte, deren Zusatz konzentrationsabhängig (IC50 50 µM) zu einer Freisetzung von Dopamin aus den Zellkulturen führt. Dies wurde durch Dopaminbestimmung in den Kulturen mit Hilfe der Hochdruckflüssigkeitschromatographie und elektrochemischer Detektion nachgewiesen. […]

Dopaminaufnahmestellen = Dopaminaufnahmestellen (Mus musculus, UniProt Q61327); test: 3H-dopamine uptake in cell cultures; format: cell-based; details: 24 h, mean ± S.D.
From the text: as §1

[2] = test system: Dopaminstoffwechsel im Striatum; test: In vivo differential pulse voltammetry of the DOPAC signal in the striatum after unilateral intranigral injection; set-up: species or system Ratte; details: for DOPAC-Signal im ipsilateralen Striatum: 10 µg in 2 µl intranigral, before L-DOPA
From the text: Die 1-Trichlormethyl-β-carboline TaClo und N-Me-TaClo wurden im Vergleich zu den bekannten Neurotoxinen MPTP und MPP^+, wie folgt, auf ihre neurotoxische Wirkung überprüft. Die zu untersuchenden Substanzen (TaClo, N-Me-TaClo, DDH-TaFlu, TaBro, MPTP und MPP^+) wurden unter Narkose mit einer Mikroglaskapillare stereotaktisch nach Koordinaten (A: 4,0 mm; L: 1,9 mm; V: 2,0 mm; ab Interaurallinie) von Paxinos und Watson (1982) unilateral in die rechte Substantia nigra pars compacta der Ratte (Han-Wistar, Zentralinstitut für Versuchstierzucht, Hannover, 250-300 g) injiziert. Appliziert wurde ein Volumen von 2 µl über einen Zeitraum von 15 Minuten.
Im Striatum, dem Projektionsareal der nigralen dopaminergen Neurone, wurde 1 und/oder 3 Wochen nach Applikation der Substanzen der Transmitterstoffwechsel untersucht. Die Untersuchung des Dopaminstoffwechsels wurde dabei in beiden Striata, dem linken Striatum, Projektionsgebiet der unbehandelten linken Substantia nigra, und dem rechten Striatum, Projektionsgebiet der behandelten rechten Substantia nigra, durchgeführt. Die Messung des Dopaminstoffwechsels erfolgte mit Hilfe der in vivo differentiellen Pulsvoltametrie (DPV) mit Mikrokohlefaserelektroden, wie sie 1980 von Gonon beschrieben wurde (Gonon et al., 1980). Dabei werden die extrazellulären Spiegel an 3,4-Dihydroxyphenylessigsäure (DOPAC) erfaßt, einem Metaboliten des Transmitters Dopamin. Die Messung wurde am narkotisierten Tier durchgeführt. Die stereotaktische Implantation von 2 Elektroden (rechtes und linkes Striatum) erfolgte nach Koordinaten (A: 8,5 mm; L: ± 3,5 mm; V: 4,5 mm; ab Interaurallinie) von Paxinos und Watson (Paxinos und Watson, 1982). Die voltametrischen Messungen wurden im Abstand von 8 Minuten durchgeführt. 40 Minuten nach Beginn der Messungen applizierte man den Tieren L-DOPA (100 mg/kg i.p.), um die Restitutionsfähigkeit des Dopaminstoffwechsels durch dieses Anti-Parkinsonmittel zu überprüfen.

dopaminerge Rezeptoren = test: Apomorphine test (Ungerstedt): locomotor activity after subchronic TaClo i.p.; format: in vivo, Ratte; details: TaClo (Hydrochlorid) 0.2 mg/kg i.p. for four weeks, then apomorphine s.c.
Protocol: Eine durch Neurotoxine verursachte Denervation des postsynaptischen Rezeptors im dopaminergen System führt zu einer Rezeptorüberempfindlichkeit. Dadurch wird die Reaktion gegenüber verabreichten DA-Agonisten (z.B. Apomorphin) größer. Zur Überprüfung einer z.B. TaClo-bedingten Überempfindlichkeit dopaminerger Rezeptoren wird der Apomorphin-Test nach Ungerstedt (Ungerstedt et al., 1971) benutzt. Dieser läßt nach s.c. Injektion von 0.4 oder 2 mg/kg Apomorphin bei einseitiger Läsion des dopaminergen Systems im Versuchstier in den für die Entstehung des Morbus Parkinson ausschlaggebenden Basalganglien contralaterale Drehungen erkennen und nach mehr oder weniger beidseitiger Schädigung dopaminerger Strukturen bei geringem Schädigungsgrad vermehrte, bei hohem Schädigungsgrad verminderte Lokomotion im Vergleich zum Kontrollkollektiv sichtbar werden.
Die Verhaltensbeobachtungen fanden während und nach einstündiger Adaption in Beobachtungskäfigen statt. Die Aufzeichnung einzelner spezifischer Parameter wie gelaufene Wegstrecke [DT], Zeit ambulatorischer Bewegungen [AT], Anzahl stereotyper Bewegungen [BMS] und Zeiten stereotyper Bewegungen erfolgte automatisch. […]

[3] = test system: Tyrosinhydroxylase-immunoreaktive Neuronen (TH-IR); test: Primary neuron cell culture: number and morphology of TH-IR neurons after 24 h; format: cell-based; details: for Zahl der TH-IR Zellen/ Kulturschale: added on culture day 9, mean ± S.D.
From the text: In der Zellkultur zeigen 1-Trichlormethyl-β-carboline neurotoxische Eigenschaften, die mit denen von MPP^+ bzw. MPTP, den bisher bestuntersuchten dopaminergen Neurotoxinen, vergleichbar sind. Das neurotoxische Potential der chlorierten β-Carboline wurde daher mit Methoden untersucht, die sich beim Studium der Wirkung von MPTP und seiner Analoga bewährt haben (Koutsilieri et al., 1993; Michel et al., 1990; Sanchez-Ramos et al., 1988) Deutliche degenerative Veränderungen sind in vitro im Akutversuch bei einer Einwirkungszeit von 24 Stunden ab einer Konzentration von 10 - 100 µM feststellbar. Die Substanzen führen zum Zelltod dopaminerger Primärzellen aus dem Mesencephalon - Zellen, die den bei Morbus Parkinson betroffenen Neuronen des Menschen entsprechen. Dem Zelltod dieser immunhistochemisch eindeutig charakterisierten Neuronen (Antikörper auf Tyrosinhydroxylase) gehen morphologische Veränderungen der Zellen voraus. Dabei nimmt die Gesamt-Zelloberfläche ab, die Dendriten und Axone, (zuerst die sekundären und dann die primären Zellfortsätze) gehen verloren. Diese histologischen Befunde (vgl. auch Tabelle 2) wurden durch bildgebende Verfahren erhärtet und quantifiziert. Die 1-Trichlormethyl-β-carboline zeigen auch toxische Eigenschaften in Gliazellkulturen, wie durch histologische Befunde nachgewiesen werden konnte. Für die Gruppe der 1-Trichlormethyl-β-carboline läßt sich eine Beeinflussung der synaptischen Transmitterkonzentration erwarten, wie an Versuchen mit der Grundstruktur TaClo nachgewiesen werden konnte, deren Zusatz konzentrationsabhängig (IC50 50 µM) zu einer Freisetzung von Dopamin aus den Zellkulturen führt. Dies wurde durch Dopaminbestimmung in den Kulturen mit Hilfe der Hochdruckflüssigkeitschromatographie und elektrochemischer Detektion nachgewiesen. Der Einsatz von ^3H-markiertem Dopamin für Aufnahmestudien weist eine Interaktion der 1-Trichlormethyl-β-carboline mit den Dopaminaufnahmestellen in Zellkulturen nach, die eine wichtige Voraussetzung für die Aufnahme dieser Substanzen in das dopaminerge Neuron und die Entfaltung der neurotoxischen Wirkung darstellen (IC50 für TaClo 100 µM) (vgl. Tabelle 2).

[4] = test system: Substantia nigra pars compacta; test: Histology of the substantia nigra pars compacta after unilateral intranigral injection (neuron count, tyrosine hydroxylase staining); format: in vivo, Ratte
From the text: Die ersten Untersuchungen von drei mit TaClo behandelten Ratten mit quantitativer Auswertung der Substantia nigra pars compacta zeigen, daß TaClo, in einer Konzentration von 0.03 µmol einseitig in die Substantia nigra injiziert, bereits nach einer Woche zu einer eindeutigen Reduktion der Neuronenzahl von 12% auf der läsionierten Seite führt. 6-OHDA, in einer annähernd doppelt so hohen Konzentration von 0.05 µmol injiziert, bewirkt einen 51% Abfall der Neuronenzahl.
Nach Anfärbung der Tyrosinhydroxylase mittels Antikörpern zur Darstellung dopaminerger Neurone zeichnen sich pathologische Veränderungen ab, die nach Behandlung mit TaClo auf der läsionierten Seite zu 3 - 6% nekrotischem Gewebsanteil am Gesamtvolumen führen. Bei 6-OHDA beträgt dieser Anteil 25%.

Dopaminaufnahmestellen, sequence (Q61327 whole entry): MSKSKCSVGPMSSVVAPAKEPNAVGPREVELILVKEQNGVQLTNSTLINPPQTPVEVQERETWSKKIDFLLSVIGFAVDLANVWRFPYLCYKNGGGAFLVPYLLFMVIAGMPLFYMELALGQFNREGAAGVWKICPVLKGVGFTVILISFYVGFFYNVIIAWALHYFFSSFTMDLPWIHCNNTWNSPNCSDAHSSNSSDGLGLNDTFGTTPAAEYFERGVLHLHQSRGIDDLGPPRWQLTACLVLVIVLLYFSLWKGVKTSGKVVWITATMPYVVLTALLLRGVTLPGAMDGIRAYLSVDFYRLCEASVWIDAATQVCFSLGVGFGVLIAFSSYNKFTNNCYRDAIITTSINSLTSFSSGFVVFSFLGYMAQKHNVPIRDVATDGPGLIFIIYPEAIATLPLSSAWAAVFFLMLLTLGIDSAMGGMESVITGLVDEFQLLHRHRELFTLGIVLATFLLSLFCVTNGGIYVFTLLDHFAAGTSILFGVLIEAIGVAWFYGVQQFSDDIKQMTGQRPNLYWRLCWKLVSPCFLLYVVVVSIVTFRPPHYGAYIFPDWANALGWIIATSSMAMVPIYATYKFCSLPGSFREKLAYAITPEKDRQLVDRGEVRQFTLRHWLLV

ClC(Cl)(Cl)C1NCCc2c1[nH]c1ccccc21 (racemic) [TaClo]
Dopamingehalt ([1]; TaClo 10 µM): 0.7 ± 0.2 pmoles/ Kulturschale
Dopamingehalt ([1]; TaClo 25 µM): 0.6 ± 0.2 pmoles/ Kulturschale
IC50 ([1]; concentration dependent, dopamine determined by HPLC with electrochemical detection, read-out: IC50 Freisetzung von Dopamin aus den Zellkulturen): 50 µM
^3H-DA uptake (Dopaminaufnahmestellen; TaClo 10 µM): 0.05 ± 0.01 pmoles/ Kulturschale
^3H-DA uptake (Dopaminaufnahmestellen; TaClo 25 µM): 0.05 ± 0.01 pmoles/ Kulturschale
^3H-DA uptake (Dopaminaufnahmestellen; TaClo 50 µM): 0.05 ± 0.01 pmoles/ Kulturschale
DOPAC-Signal im ipsilateralen Striatum ([2]; 1 week): signifikant geringere DOPAC-Konzentration
DOPAC-Signal im ipsilateralen Striatum ([2]; 3 weeks): signifikant geringere DOPAC-Konzentration
lokomotorische Aktivität nach Apomorphin (dopaminerge Rezeptoren): stieg nach der kleineren Dosierung signifikant an
Zahl der TH-IR Zellen/ Kulturschale ([3]; TaClo 10 µM): 172 ± 69
Länge der Fortsätze ([3]; TaClo 10 µM, mean ± S.D.): 80 ± 20 µm
Zahl der primären Fortsätze ([3]; TaClo 10 µM, mean ± S.D.): 3.1 ± 1.1
Zahl der sekundären Fortsätze ([3]; TaClo 10 µM, mean ± S.D.): 2.6 ± 1.6
Zellfläche ([3]; TaClo 10 µM, mean ± S.D.): 180 ± 49 µm^2
Zahl der TH-IR Zellen/ Kulturschale ([3]; TaClo 25 µM): 164 ± 67
Länge der Fortsätze ([3]; TaClo 25 µM, mean ± S.D.): 70 ± 20 µm
Zahl der primären Fortsätze ([3]; TaClo 25 µM, mean ± S.D.): 2.9 ± 1.0
Zellfläche ([3]; TaClo 25 µM, mean ± S.D.): 192 ± 47 µm^2
Zahl der TH-IR Zellen/ Kulturschale ([3]; TaClo 50 µM): 128 ± 47
Länge der Fortsätze ([3]; TaClo 50 µM, mean ± S.D.): 70 ± 30 µm
Zahl der primären Fortsätze ([3]; TaClo 50 µM, mean ± S.D.): 2.6 ± 1.3
Zellfläche ([3]; TaClo 50 µM, mean ± S.D.): 159 ± 18 µm^2
Zellfläche ([3]; TaClo 100 µM, mean ± S.D.): 185 ± 43 µm^2
Reduktion der Neuronenzahl auf der läsionierten Seite ([4]; 0.03 µmol injected unilaterally into the substantia nigra, after one week, three rats): 12%
nekrotischer Gewebsanteil am Gesamtvolumen auf der läsionierten Seite ([4]; TaClo treatment (0.03 µmol), tyrosine hydroxylase antibody staining): 3 - 6%

NCCc1cc(O)c(O)cc1O [6-OHDA, 6-hydroxydopamine, reference compound]
Abfall der Neuronenzahl ([4]; 0.05 µmol injected): 51%
nekrotischer Gewebsanteil am Gesamtvolumen ([4]; 6-OHDA (0.05 µmol), tyrosine hydroxylase antibody staining): 25%

FC(F)(F)C1=NCCc2c1[nH]c1ccccc21 [DDH-TaFlu, 1-Trifluormethyl-3,4-didehydro-β-carbolin]
DOPAC-Signal im ipsilateralen Striatum ([2]; 1 week): stärkere Reduktion des DOPAC-Signals

C[n+]1ccc(-c2ccccc2)cc1 [MPP^+, 1-Methyl-4-Phenylpyridinium, reference compound]
DOPAC-Signal auf der injizierten Seite ([2]; MPP^+ 30 µg in 2 µl intranigral, 1 and 3 weeks): hochsignifikante (p < 0.01) langanhaltende Verringerung des DOPAC-Signals
Restitutionsfähigkeit des dopaminergen Systems durch DOPA ([2]; MPP^+ 30 µg in 2 µl intranigral, 1 week, L-DOPA 100 mg/kg i.p.): mangelnde Restitutionsfähigkeit

CN1CC=C(c2ccccc2)CC1 [MPTP, 1-Methyl-4-phenyl-1,2,3,6-tetrahydropyridin, reference compound]
Kompensation des Neuronenverlusts durch L-DOPA ([2]; MPTP 174 µg in 2 µl intranigral, 1 and 3 weeks, L-DOPA 100 mg/kg i.p.): kompensieren konnte
DOPAC-Wert auf der läsionierten Seite vor L-DOPA ([2]; MPTP 174 µg in 2 µl intranigral, 1 week, intact side about 20%, p < 0.05): ~6%
Erniedrigung des DOPAC-Signals ([2]; MPTP 174 µg in 2 µl intranigral, 3 weeks): statistisch nicht mehr signifikant

CN1CCc2c([nH]c3ccccc23)C1C(Cl)(Cl)Cl (centres unmarked) [N-Me-TaClo]
DOPAC-Signal im ipsilateralen Striatum ([2]; 1 week): signifikant
DOPAC-Signal im ipsilateralen Striatum ([2]; 3 weeks): signifikant
